From the NIST ThermoML archive (doi:10.1016/j.jct.2014.06.004)

Experiments:
[1] = 100 kPa, Liquid; for speed of sound: Frequency=3 MHz, Sing-around technique in a fixed-path interferometer; for mass density: Vibrating tube method
[2] = refractive index (Na D-line) (dimensionless); details: 101.33 kPa, Liquid, Standard Abbe refractometry
[3] = xn = mol fraction of the nth substance listed; details: 100 kPa, Liquid; for speed of sound: Frequency=3 MHz, Sing-around technique in a fixed-path interferometer; for mass density: Vibrating tube method
[4] = refractive index (Na D-line) (dimensionless); xn = mol fraction of the nth substance listed; details: 100 kPa, Liquid, Standard Abbe refractometry

CCC(=O)O [propanoic acid]
Details	mass density, [1] [kg/m3]	refractive index, [2]	speed of sound, [1] [m/s]
293.15 K	993.9	1.3865	1166
298.15 K	988.5	1.3848	1147
303.15 K	983.1	1.383	1128
308.15 K	977.7	1.3811	1109
313.15 K	972.3	1.3792	1090

CCO [ethanol]
298.15 K
Details	mass density [kg/m3]	refractive index	speed of sound [m/s]
[1]	785.2	–	1142
[2]	–	1.3594	–

CCOC(=O)OCC [diethyl carbonate]
298.15 K
Details	mass density [kg/m3]	refractive index	speed of sound [m/s]
[1]	969.3	–	1177
[2]	–	1.3825	–

CCCC(=O)O [butanoic acid]
Details	mass density, [1] [kg/m3]	refractive index, [2]	speed of sound, [1] [m/s]
293.15 K	957.8	1.3983	1196
298.15 K	952.8	1.3963	1177
303.15 K	947.9	1.3942	1158
308.15 K	942.9	1.3922	1139
313.15 K	938.1	1.3901	1121

CCOC(=O)OCC [diethyl carbonate] + CCO
298.15 K
Details	mass density, [3] [kg/m3]	refractive index, [4]	speed of sound, [3] [m/s]
x1 = 0.0415	800.3	1.3614	1145
x1 = 0.0943	817.7	1.3635	1147
x1 = 0.1932	845.9	1.367	1150
x1 = 0.2929	869.6	1.3698	1154
x1 = 0.3938	890	1.3724	1156
x1 = 0.4965	907.8	1.3746	1159
x1 = 0.597	923	1.3765	1162
x1 = 0.6924	935.7	1.3781	1166
x1 = 0.7911	947.6	1.3796	1169
x1 = 0.899	959.3	1.3811	1173
x1 = 0.9413	963.6	1.3817	1175
x1 = 1	969.3	1.3825	1177

CCC(=O)O [propanoic acid] + CCCCCCC(=O)O
x2 = 0
Details	mass density, [3] [kg/m3]	refractive index, [4]	speed of sound, [3] [m/s]
293.15 K	993.9	1.3865	1166
298.15 K	988.5	1.3848	1147
303.15 K	983.1	1.383	1128
308.15 K	977.7	1.3811	1109
313.15 K	972.3	1.3792	1090

CCCCCCC(=O)O [heptanoic acid]
Details	mass density, [1] [kg/m3]	refractive index, [2]	speed of sound, [1] [m/s]
293.15 K	917.7	1.4234	1295
298.15 K	913.5	1.4214	1278
303.15 K	909.3	1.4194	1260
308.15 K	905.1	1.4173	1242
313.15 K	900.9	1.4153	1225

CCO [ethanol] + CCOC(=O)OCC
298.15 K, x2 = 0
Details	mass density [kg/m3]	refractive index	speed of sound [m/s]
[3]	785.2	–	1142
[4]	–	1.3594	–

CCCC(=O)O [butanoic acid] + CCCCCCC(=O)O
x2 = 0
Details	mass density, [3] [kg/m3]	refractive index, [4]	speed of sound, [3] [m/s]
293.15 K	957.8	1.3983	1196
298.15 K	952.8	1.3963	1177
303.15 K	947.9	1.3942	1158
308.15 K	942.9	1.3922	1139
313.15 K	938.1	1.3901	1121
